Data reported in ChEMBL document CHEMBL2073924, “Carrier-mediated hepatic uptake of peptidic endothelin antagonists in rats” (J Pharmacol Exp Ther, 1999).
Peptide text beside a SMILES is read from it.

Experiments:
[1] = target: T1, Solute carrier organic anion transporter family member 1A1 (Rattus norvegicus, UniProt P46720); assay: TP_TRANSPORTER: uptake in Oatp1-expressing COS-7 cells; assay type: functional, cell-based; details: monkey
T1 sequence (P46720 whole entry): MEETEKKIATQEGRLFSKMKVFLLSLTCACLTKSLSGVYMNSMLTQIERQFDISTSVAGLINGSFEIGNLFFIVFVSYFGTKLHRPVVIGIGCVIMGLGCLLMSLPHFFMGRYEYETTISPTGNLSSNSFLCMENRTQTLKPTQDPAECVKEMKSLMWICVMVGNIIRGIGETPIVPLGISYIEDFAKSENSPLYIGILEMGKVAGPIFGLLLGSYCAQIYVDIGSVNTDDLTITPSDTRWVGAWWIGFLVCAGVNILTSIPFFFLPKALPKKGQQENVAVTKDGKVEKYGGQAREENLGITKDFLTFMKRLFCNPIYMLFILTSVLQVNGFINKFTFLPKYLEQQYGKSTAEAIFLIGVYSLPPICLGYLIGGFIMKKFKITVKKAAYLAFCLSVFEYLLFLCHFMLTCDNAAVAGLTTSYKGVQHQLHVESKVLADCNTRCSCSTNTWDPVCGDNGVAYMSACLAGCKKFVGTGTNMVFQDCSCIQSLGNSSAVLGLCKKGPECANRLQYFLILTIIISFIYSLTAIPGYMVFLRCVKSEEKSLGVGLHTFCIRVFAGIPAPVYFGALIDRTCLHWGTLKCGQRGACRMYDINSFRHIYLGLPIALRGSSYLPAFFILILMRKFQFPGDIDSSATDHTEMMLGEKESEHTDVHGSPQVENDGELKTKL

[2] = target: T2, Hepatic sodium/bile acid cotransporter (Rattus norvegicus, UniProt P26435); assay: TP_TRANSPORTER: uptake in Ntcp-expressing COS-7 cells; assay type: functional, cell-based; details: monkey
T2 sequence (P26435 whole entry): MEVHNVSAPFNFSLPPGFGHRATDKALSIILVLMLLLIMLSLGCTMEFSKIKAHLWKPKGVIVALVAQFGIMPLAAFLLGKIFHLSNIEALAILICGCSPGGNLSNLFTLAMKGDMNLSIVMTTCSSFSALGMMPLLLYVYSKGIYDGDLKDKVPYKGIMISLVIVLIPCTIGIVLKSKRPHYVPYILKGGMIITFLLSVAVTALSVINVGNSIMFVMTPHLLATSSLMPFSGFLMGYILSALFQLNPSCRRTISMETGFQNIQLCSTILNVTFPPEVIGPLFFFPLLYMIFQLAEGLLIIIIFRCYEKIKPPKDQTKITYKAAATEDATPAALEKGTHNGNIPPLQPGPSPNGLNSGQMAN

Compound: CC(C)C[C@@H]1NC(=O)[C@@H](C(C)C)NC(=O)[C@@H]2CCCN2C(=O)[C@@H](CC(=O)O)NC(=O)[C@@H](Cc2c[nH]c3ccccc23)NC1=O [BQ-123] (HELM PEPTIDE1{L.[dW].[dD].P.[dV]}$PEPTIDE1,PEPTIDE1,1:R1-5:R2$$$V2.0)
- Activity [1]: is not a substrate [-]
- Activity [2]: is not a substrate [-]
